According to PMC13083723 (Patterns, 2026):
Residues, ends and D or L forms follow the SMILES beside them.

System: Vero-E6 cells
Test: cells
Type: cell-based
Conditions: for activation at 10 µM: Chlorocebus sabaeus, Vero C1008, 24 h, read-out: PL_Result

Row | SMILES | activation at 10 µM | other results
1 | CN(C)C/C=C/C(=O)Nc1ccc(C(=O)Nc2cccc(Nc3ncc(Cl)c(-c4c[nH]c5ccccc45)n3)c2)cc1 [SPE_K66401437] | 6.67% | –
2 | COc1[nH]c2ccc(F)cc2c1C(=O)OCC1CCN(CCNS(C)(=O)=O)CC1 [SPE_K62594868] | -2.59% | –
3 | Cc1cc(C)cc(C(=O)OC2CC3CCC(C2)N3C)c1 (stereo not drawn) [SPE_A84389633] | 9.75% | –
4 | CC(=O)NCCNc1cc(Cl)nn2c(-c3cccc(S(=O)(=O)N(C)C)c3)c(C)nc12 [SPE_K26726854] | 0.695% | –
5 | C=CCC1(CC(C)C)C(=O)NC(=O)NC1=O [SPE_K71350836] | -15.8% | –
6 | O=C(O)CCCNC(=O)c1cccnc1 [SPE_K56691760] | 0.477% | –
7 | Cc1cc(OCc2nnc(SC3CCCC3)n2-c2cccnc2)ccc1-c1ccc(S(C)(=O)=O)cc1 [SPE_K26253904] | -0.282% | –
8 | Cc1nc(-c2cn3c(n2)-c2ccc(-c4cnn(C(C)(C)C(N)=O)c4)cc2OCC3)n(C(C)C)n1 [SPE_K44844162] | 4.98% | –
9 | Cc1ccc(C)c(C(O)CNC(C)C)c1 (stereo not drawn) [SPE_A98083480] | 3.82% | –
10 | COc1ccccc1N1CCN(CCN(C(=O)C2CCCCC2)c2ccccn2)CC1 [SPE_K69812556] | -15.3% | –
11 | NC(=O)C[C@H](N)C(=O)O [SPE_K06665116] | -6.33% | –
12 | CC(C)[C@H](CO)Nc1nc(Nc2cccc(Cl)c2)c2ncn(C(C)C)c2n1 [SPE_K50836978] | 1.32% | –
13 | CCCN1CCCC[C@H]1C(=O)Nc1c(C)cccc1C [SPE_K50938786] | 0.0286% | –
14 | Cc1cccc(C)c1NC(=O)CN1CCN(CCCC(c2ccc(F)cc2)c2ccc(F)cc2)CC1 [SPE_K62996583] | 90.9% | –
15 | O=c1[nH]c(=O)n([C@H]2C[C@H](O)[C@@H](CO)O2)cc1/C=C/Br [SPE_A63675168] | -6.33% | –
16 | CCCCCC(=O)O[C@]1(C(C)=O)CCC2C3CCC4=CC(=O)CC[C@]4(C)C3CC[C@@]21C (stereo partly drawn) [SPE_A29731977] | -5.02% | –
17 | COc1ccc(CCN(C)CCCN2CCc3cc(OC)c(OC)cc3CC2=O)cc1OC [SPE_K92446736] | -9.23% | –
18 | C[C@]12CC[C@H](O)C[C@H]1CC[C@@H]1[C@@H]2C[C@@H](O)[C@]2(C)[C@@H](C3=CC(=O)OC3)CC[C@]12O [SPE_K18619710] | -13.9% | –
19 | CS(=O)(=O)Nc1ccc([N+](=O)[O-])cc1Oc1ccccc1 [SPE_K76775527] | -12.8% | –
20 | CC(C)CC(NC(=O)C1CCCN1)C(=O)NCC(N)=O (stereo not drawn) [SPE_A09911125] (H-Pro-Leu-Gly-NH2; configuration not given here) | -6.88% | –
21 | C[C@@H](O)[C@H](N)C(=O)N1CCC[C@H]1C(=O)N1CCC[C@H]1C(=O)N[C@H](C(N)=O)[C@@H](C)O [SPE_K02206208] (H-TPPT-NH2) | – | PL_Result: -5.35
22 | CCOC(=O)c1ncc2[nH]c3ccc(OCc4ccccc4)cc3c2c1COC [SPE_K33882852] | -9.36% | –
23 | CC(C)(C)NCC(O)COc1cccc2[nH]c(=O)[nH]c12 (stereo not drawn) [SPE_A40084411] | 1.76% | –
24 | CCCCCCCCCCCCCCCc1cccc(OCC(=O)NCCO)c1 [SPE_K26358347] | -8.8% | –
25 | COc1cc(C=O)c([N+](=O)[O-])cc1OC [SPE_K03564313] | 2.17% | –
26 | CCCCCCCN(CC)CCCC(O)c1ccc(NS(C)(=O)=O)cc1 (stereo not drawn) [SPE_A74391928] | -5.8% | –

Row | SMILES | activation at 10 µM | other results
27 | O=C(O)CCNc1cc(N2CCc3ccccc3CC2)nc(-c2ccccn2)n1 [SPE_K32847255] | -5.77% | –
28 | CNCCc1c[nH]cn1 [SPE_K64422603] | -17.3% | –
29 | COc1cc2ncnc(Nc3ccc(Oc4ccccc4)cc3)c2cc1OC [SPE_K50495309] | -8.17% | –
30 | Cn1nc(-c2ccc(C(F)(F)F)cc2)nc2c(=O)n(C)c(=O)nc1-2 [SPE_K01129913] | -6.15% | –
31 | C[C@]12CC[C@H]3[C@@H](CCC4=CC(=O)CC[C@@]43C)[C@@H]1CC[C@@H]2C(=O)CO [SPE_K98521173] | -5.9% | –
32 | COc1cc2ncnc(Nc3ccc(F)c(Cl)c3)c2cc1OCCCN1CCOCC1 [SPE_K64052750] | -10.1% | –
33 | O=C(Nc1cccnc1)N1CCC(Cc2cccc(Oc3ccc(C(F)(F)F)cn3)c2)CC1 [SPE_K68997413] | 1.53% | –
34 | CC(COc1ccccc1Cc1ccccc1)N1CCCCC1 (stereo not drawn) [benproperine, reference compound] | – | PLD propensity: high PLD propensity
35 | CN(CCCN1c2ccccc2CCc2ccccc21)CC(=O)c1ccc(Cl)cc1 [SPE_K82147103] | -0.728% | –
36 | CC1(C)S[C@@H]2[C@H](NC(=O)C(C(=O)O)c3ccsc3)C(=O)N2[C@H]1C(=O)O (stereo partly drawn) [SPE_A55051145] | -6.58% | –
37 | O=C(NCC(=O)N1CCCC1)Nc1ccc2cnccc2c1 [SPE_K86718786] | -0.0855% | –
38 | COc1ccc(-c2coc3cc(O)cc(O)c3c2=O)cc1 [SPE_K73303757] | -15.6% | –
39 | CCN(CCNC(=O)Nc1ccccc1Br)c1cccc(C)c1 [SPE_K03665769] | -3.7% | –
40 | CCCCCCCCCCCCCCCCCCCCCCCCCCCCO [SPE_K03083257] | -15.2% | –
41 | CC(O)c1cc(C(=O)N[C@@H](C)Cn2ccc(-c3ccc(C#N)c(Cl)c3)n2)n[nH]1 (stereo partly drawn) [SPE_A01259528] | -15.4% | –
42 | COC(=O)C1=C(C)NC(C)=C(C(=O)OCC(C)C)C1c1ccccc1[N+](=O)[O-] (stereo not drawn) [SPE_A84465106] | 0.581% | –
43 | CCOc1cccc(NC(=O)c2ccc(N3CCCC3)c(C(F)(F)F)c2)c1 [SPE_K42536037] | -13.1% | –
44 | COc1ccn2ncc(-c3nc4[nH]nc(NC(=O)c5ccc(F)cc5)c4cc3F)c2c1 [SPE_K84068331] | -16.5% | –
45 | Nc1ccn([C@H]2C[C@H](O)[C@@H](CO)O2)c(=O)n1 [SPE_K91822704] | 0.471% | –
46 | N=C(N)NCc1cccc(I)c1 [SPE_K43860855] | -5.07% | –
47 | O=C(NCCN1CCN(c2ncccn2)CC1)C12CC3CC(CC(C3)C1)C2 [SPE_K67789209] | -11.4% | –
48 | CC#CC(=O)N1CCC[C@H]1c1nc(-c2ccc(C(=O)Nc3ccccn3)cc2)c2c(N)nccn12 [SPE_K64034691] | -12.3% | –
49 | O=C(/C=C/c1cccnc1)NCCCCC1CCN(C(=O)c2ccccc2)CC1 [SPE_K58550667] | 2.51% | –
50 | O=C(Cc1ccc(-c2ccc(OCCN3CCOCC3)cc2)cn1)NCc1ccccc1 [SPE_K29968218] | -4.21% | –
51 | COc1cc(N)c(Cl)cc1C(=O)NC1CN2CCC1CC2 (stereo not drawn) [SPE_A65615053] | -14.1% | –
52 | CC[C@]1(O)C[C@H]2C[N@](CCc3c([nH]c4ccccc34)[C@@](C(=O)OC)(c3cc4c(cc3OC)N(C)[C@H]3[C@@](O)(C(N)=O)[C@H](O)[C@]5(CC)C=CCN6CC[C@]43[C@@H]65)C2)C1 [SPE_K59753975] | 7.07% | –

Row | SMILES | activation at 10 µM | other results
53 | O=C(NC[C@H](O)CO)c1ccncc1Nc1ccc(I)cc1F [SPE_K89014967] | -12.6% | –
54 | CN(C)C(=O)Oc1cccc([N+](C)(C)C)c1 [SPE_K18922609] | -9.73% | –
55 | CN1CCN(CCc2ccc(Cl)c(Cl)c2)CC1 [SPE_K29668683] | 11.7% | –
56 | Clc1ccc(C(Cn2ccnc2)OCc2ccsc2Cl)c(Cl)c1 (stereo not drawn) [SPE_A33084557] | 4.51% | –
57 | COC(F)(F)C(Cl)Cl [SPE_K06152156] | -2.25% | –
58 | CCNC(=O)C[C@@H]1N=C(c2ccc(Cl)cc2)c2cc(OC)ccc2-n2c(C)nnc21 [I-BET-762, reference compound] | – | result_ITMP: 13.27 percent effect
59 | Cc1ccc(N2CCN(CCC3NC(=O)c4ccccc43)CC2)cc1C (stereo not drawn) [SPE_A82013137] | -6.23% | –
60 | CC(C)(Sc1cc(C(C)(C)C)c(O)c(C(C)(C)C)c1)Sc1cc(C(C)(C)C)c(O)c(C(C)(C)C)c1 [SPE_K72029282] | -0.8% | –
61 | C=CCN1C[C@H](C(=O)N(CCCN(C)C)C(=O)NCC)C[C@@H]2c3cccc4[nH]cc(c34)C[C@H]21 [SPE_K86882815] | 9.44% | –
62 | OCc1cc([C@@H](O)CNCCCCCCOCCOCc2c(Cl)cccc2Cl)ccc1O [SPE_M36487418] | 28.8% | –
63 | O=S(=O)(c1cccc2cnccc12)N1CCNCC1 [SPE_K72462751] | -15.9% | –
64 | C[C@@]12C[C@@]3(O)O[C@@H](O1)[C@]1(COC(=O)c4ccccc4)[C@H]3C[C@@]12O[C@@H]1O[C@H](CO)[C@@H](O)[C@H](O)[C@H]1O [SPE_K83631119] | 4.42% | –
65 | CC(C)=CCC[C@](C)(O[C@@H]1O[C@H](CO)[C@@H](O)[C@H](O)[C@H]1O)[C@H]1CC[C@]2(C)[C@@H]1[C@H](O)C[C@@H]1[C@@]3(C)CC[C@H](O)C(C)(C)[C@@H]3CC[C@]12C [SPE_K01942833] | -8.36% | –
66 | CC(=O)c1ccc2c(c1)N(CCCN1CCN(CCO)CC1)c1ccccc1S2 [SPE_K42938903] | 52.6% | –
67 | O=C(c1ccc(CN2CCOCC2)cc1)N1CCN(C2CC2)CC1 [SPE_K79595931] | -2.77% | –
68 | CN(C)Cc1ccc(-c2nc3cccc4c3n2CCNC4=O)cc1 [SPE_K00615600] | 6.53% | –
69 | Cc1cccc2c1CC[C@H](CN1CCC(c3c(Cl)cccc3Cl)CC1)C[C@@H]2O [SPE_K08333979] | -2.39% | –
70 | CC(=O)O[C@H]1CC[C@@]2(C)C(=CC[C@@H]3[C@@H]2CC[C@]2(C)C(c4cccnc4)=CC[C@@H]32)C1 [SPE_K24048528] | -6.34% | –
71 | CCOc1c2c(c(OCC)c3ccccc13)C(=O)N(c1ccc(CC(=O)NS(=O)(=O)c3ccccc3)cc1)C2 [SPE_K50005760] | -9.22% | –
72 | Nc1nc(NC2CC2)cc(-c2cccc(Cl)c2Cl)n1 [SPE_K01054709] | -5.46% | –
73 | Cn1cc(C2=C(c3cn(C4CCN(Cc5ccccn5)CC4)c4ccccc34)C(=O)NC2=O)c2ccccc21 [SPE_K79404599] | -2.44% | –
74 | COc1cnc(NS(=O)(=O)c2ccc(N)cc2)nc1 [SPE_K87492696] | -0.356% | –
75 | COc1ccc(CNC(=O)c2sc3nc(C)cc(C)c3c2N)cc1 [SPE_K87727457] | -11.5% | –
76 | N#Cc1c(Oc2ccc(F)c(NC(=O)Cc3cccc(C(F)(F)F)c3)c2)ccc2nc(NC(=O)C3CC3)sc12 [SPE_K31866293] | 1.45% | –
77 | NC[C@@H]1CC[C@@H](N)[C@@H](O[C@H]2[C@H](O)[C@@H](O[C@H]3O[C@H](CO)[C@@H](O)[C@H](N)[C@H]3O)[C@H](N)C[C@@H]2N)O1 [SPE_K48427910] | -9.88% | –
78 | CCCCCCCCCCCCCCCCO [SPE_K37203094] | 1.52% | –
